Series [1] has as its system RD. Nature of the series: Downregulation of H3K79me1 expression in human RD cells at 5 uM incubated for 6 days by immunoblotting analysis. Format: functional, cell-based. The following applies: time 6.0 day. A general note: In western blotting, separated proteins are transferred to a membrane and probed.
Series [2] in a line: AUC (0 to infinity) in Sprague-Dawley rat at 10 mg/kg, iv administered for 12 hrs by HPLC analysis. On the set-up: time 12 hrs, dose 10 mg/kg, route iv. The following applies: in vivo. Format: ADME, organism-based.
In series [3] the target is T1, Histone-lysine N-methyltransferase EZH2 (Homo sapiens, UniProt Q15910). Kind of series: Binding affinity to EZH2 in human RD cells assessed as increase in protein thermal stability at 5 uM incubated for 4 hrs by CETSA based Western blot analysis. It counts as cell-based.
Target sequence in this assay (Q15910 whole entry, looked up): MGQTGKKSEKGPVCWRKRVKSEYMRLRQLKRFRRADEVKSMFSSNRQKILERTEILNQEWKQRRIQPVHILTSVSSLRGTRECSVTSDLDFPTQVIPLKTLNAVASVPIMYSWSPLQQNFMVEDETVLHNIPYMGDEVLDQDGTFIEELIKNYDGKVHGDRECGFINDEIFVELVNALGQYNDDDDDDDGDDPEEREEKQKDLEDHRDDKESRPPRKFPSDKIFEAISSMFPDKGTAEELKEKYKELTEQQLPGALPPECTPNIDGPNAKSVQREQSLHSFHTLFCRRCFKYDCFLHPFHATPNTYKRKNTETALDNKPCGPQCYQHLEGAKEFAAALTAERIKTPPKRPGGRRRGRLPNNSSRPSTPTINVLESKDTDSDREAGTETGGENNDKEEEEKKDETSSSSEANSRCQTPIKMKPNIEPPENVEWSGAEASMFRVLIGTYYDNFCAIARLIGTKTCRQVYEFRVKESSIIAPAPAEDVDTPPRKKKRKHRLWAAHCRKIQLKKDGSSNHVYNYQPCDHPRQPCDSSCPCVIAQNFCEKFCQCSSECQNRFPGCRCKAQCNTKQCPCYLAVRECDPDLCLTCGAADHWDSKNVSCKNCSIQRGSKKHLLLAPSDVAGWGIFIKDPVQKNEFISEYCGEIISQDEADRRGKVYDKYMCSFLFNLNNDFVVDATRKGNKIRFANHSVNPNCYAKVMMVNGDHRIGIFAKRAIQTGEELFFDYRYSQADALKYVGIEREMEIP
Series [4] concerns Mus musculus. Kind of series: Downregulation of H3K9me2 expression in tumor tissue of BALB/c nude mouse xenografted with human RD cells at 20 mg/kg, ip administered for 5 consecutive days followed by 2 rest days for 3 weeks by Western blotting analysis. Format: functional, organism-based. For orientation: A xenograft is tissue or cells of one species grown in another, often human tumour cells in immunodeficient mice.

Series [5] is described as follows: AUC (0 to 24 hrs) in Sprague-Dawley rat at 10 mg/kg, iv administered for 12 hrs by HPLC analysis. It counts as ADME, organism-based. On the set-up: dose 10 mg/kg, time 12 hrs, route iv. The conditions noted are these: in vivo.
The nature of series [6]: Tmax in Sprague-Dawley rat at 10 mg/kg, iv administered for 12 hrs by HPLC analysis. Format: ADME, organism-based. The conditions noted are these: in vivo.
Series [7] has as its target T2, Histone-lysine N-methyltransferase EZH1 (Homo sapiens) (UniProt Q92800).
T2 sequence (whole entry): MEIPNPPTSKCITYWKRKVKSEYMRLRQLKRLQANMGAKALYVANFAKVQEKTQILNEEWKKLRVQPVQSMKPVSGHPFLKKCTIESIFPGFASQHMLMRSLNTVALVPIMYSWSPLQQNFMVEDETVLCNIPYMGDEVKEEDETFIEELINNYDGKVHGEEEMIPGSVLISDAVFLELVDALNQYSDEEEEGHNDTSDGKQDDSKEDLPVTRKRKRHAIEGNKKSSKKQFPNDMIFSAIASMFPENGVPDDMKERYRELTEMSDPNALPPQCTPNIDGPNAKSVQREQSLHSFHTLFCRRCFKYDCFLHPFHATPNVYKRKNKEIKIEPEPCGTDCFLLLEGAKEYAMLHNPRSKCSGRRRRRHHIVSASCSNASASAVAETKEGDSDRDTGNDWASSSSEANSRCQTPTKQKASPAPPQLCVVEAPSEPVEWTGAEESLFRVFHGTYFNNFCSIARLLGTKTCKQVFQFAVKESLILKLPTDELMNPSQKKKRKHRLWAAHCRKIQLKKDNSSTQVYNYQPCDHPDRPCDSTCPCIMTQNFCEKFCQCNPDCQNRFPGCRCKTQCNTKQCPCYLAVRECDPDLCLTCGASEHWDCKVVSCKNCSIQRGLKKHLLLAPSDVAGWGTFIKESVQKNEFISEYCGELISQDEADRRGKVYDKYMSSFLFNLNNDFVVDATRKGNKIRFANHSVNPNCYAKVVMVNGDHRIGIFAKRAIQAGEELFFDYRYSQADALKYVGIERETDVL
Kind of series: Inhibition of human EZH1 using SAM as substrate at 10 uM by time-resolved fluorescence assay relative to control.

Series [8] deals with RD. Kind of series: Antitumor activity against human RD cells xenografted in BALB/c nude mouse assessed as suppression of tumor growth administered intraperitoneally for 5 consecutive days followed by 2 rest days for 3 weeks. The conditions noted are these: dose 10-20 mg/kg, route ip.
The nature of series [9]: Cmax in Sprague-Dawley rat at 10 mg/kg, iv administered for 12 hrs by HPLC analysis. It counts as ADME, organism-based. On the set-up: dose 10 mg/kg, time 12 hrs, route iv. The conditions noted are these: in vivo.
Series [10] concerns the target Histone-lysine N-methyltransferase SETD2 (Homo sapiens) (UniProt Q9BYW2). Kind of series: Inhibition of SETD2 (unknown origin) using SAM as substrate at 10 uM by time-resolved fluorescence assay relative to control.
For series [11], the target named is T1, Histone-lysine N-methyltransferase EZH2. Kind of series: Inhibition of human EZH2 using SAM as substrate incubated for 1 hr by microplate luminescence based HMT assay.
Target sequence in this assay (Q15910 whole entry): as the sequence (Q15910 whole entry, looked up) above
For series [12], the system named is RD. Nature of the series: Downregulation of H3K79me3 expression in human RD cells at 5 uM incubated for 6 days by immunoblotting analysis. It counts as functional, cell-based. The following applies: time 6.0 day.
Series [13] has as its system RD. Nature of the series: Downregulation of H3K4me2 expression in human RD cells at 5 uM incubated for 6 days by immunoblotting analysis. It counts as functional, cell-based. The conditions noted are these: time 6.0 day.
The subject of series [14] is Mus musculus. Nature of the series: Downregulation of H3K27me3 expression in tumor tissue of BALB/c nude mouse xenografted with human RD cells at 20 mg/kg, ip administered for 5 consecutive days followed by 2 rest days for 3 weeks by Western blotting analysis. It counts as functional, organism-based.
A short description of series [15]: Toxicity in BALB/c nude mouse xenografted with human RD cells assessed as body weight fluctuations at 10 to 20 mg/kg, ip administered for 5 consecutive days followed by 2 rest days for 3 weeks. The following applies: in vivo, 504 h, dose 10-20 mg/kg. It counts as organism-based.
Series [16] in a line: Apparent volume of distribution in Sprague-Dawley rat at 10 mg/kg, iv administered for 12 hrs by HPLC analysis. Format: ADME, organism-based. The following applies: in vivo, read-out: Vc.
Series [17] in a line: Toxicity in BALB/c nude mouse xenografted with human RD cells assessed as mortality at 10 to 20 mg/kg, ip administered for 5 consecutive days followed by 2 rest days for 3 weeks. It counts as organism-based. The conditions noted are these: in vivo, 504 h, dose 10-20 mg/kg.
Series [18] concerns RD. Kind of series: Downregulation of H3K9me2 expression in human RD cells at 5 uM incubated for 6 days by Western blotting analysis. It counts as functional, cell-based. The conditions noted are these: time 6.0 day.
The target in series [19] is T3, N-lysine methyltransferase KMT5A (Homo sapiens) (UniProt Q9NQR1).
T3 sequence (whole entry): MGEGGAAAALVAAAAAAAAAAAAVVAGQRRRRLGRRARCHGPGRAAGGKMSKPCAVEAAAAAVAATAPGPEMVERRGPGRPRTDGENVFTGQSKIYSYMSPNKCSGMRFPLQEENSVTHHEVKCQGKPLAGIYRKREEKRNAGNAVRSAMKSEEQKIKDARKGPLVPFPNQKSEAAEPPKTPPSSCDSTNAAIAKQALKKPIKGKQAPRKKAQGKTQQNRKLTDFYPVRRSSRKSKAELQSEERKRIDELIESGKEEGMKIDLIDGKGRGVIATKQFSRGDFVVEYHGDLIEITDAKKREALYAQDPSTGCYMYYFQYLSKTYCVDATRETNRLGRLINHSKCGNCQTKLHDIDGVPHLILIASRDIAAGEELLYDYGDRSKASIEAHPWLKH
Kind of series: Inhibition of SETD8 (unknown origin) using SAM as substrate at 10 uM by time-resolved fluorescence assay relative to control.

Series [20] concerns RD. Nature of the series: Antitumor activity against human RD cells xenografted in BALB/c nude mouse assessed as tumor growth inhibition at 10 to 20 mg/kg, ip administered for 5 consecutive days followed by 2 rest days for 3 weeks. The conditions noted are these: dose 10-20 mg/kg. It counts as functional.

SMILES strings stand for the structures. Activity calls are given as the source filed them. The calls are words filed in the database; no cut-off is given here.

Sequence of Histone-lysine N-methyltransferase SETD2 (Homo sapiens) (Q9BYW2 whole entry): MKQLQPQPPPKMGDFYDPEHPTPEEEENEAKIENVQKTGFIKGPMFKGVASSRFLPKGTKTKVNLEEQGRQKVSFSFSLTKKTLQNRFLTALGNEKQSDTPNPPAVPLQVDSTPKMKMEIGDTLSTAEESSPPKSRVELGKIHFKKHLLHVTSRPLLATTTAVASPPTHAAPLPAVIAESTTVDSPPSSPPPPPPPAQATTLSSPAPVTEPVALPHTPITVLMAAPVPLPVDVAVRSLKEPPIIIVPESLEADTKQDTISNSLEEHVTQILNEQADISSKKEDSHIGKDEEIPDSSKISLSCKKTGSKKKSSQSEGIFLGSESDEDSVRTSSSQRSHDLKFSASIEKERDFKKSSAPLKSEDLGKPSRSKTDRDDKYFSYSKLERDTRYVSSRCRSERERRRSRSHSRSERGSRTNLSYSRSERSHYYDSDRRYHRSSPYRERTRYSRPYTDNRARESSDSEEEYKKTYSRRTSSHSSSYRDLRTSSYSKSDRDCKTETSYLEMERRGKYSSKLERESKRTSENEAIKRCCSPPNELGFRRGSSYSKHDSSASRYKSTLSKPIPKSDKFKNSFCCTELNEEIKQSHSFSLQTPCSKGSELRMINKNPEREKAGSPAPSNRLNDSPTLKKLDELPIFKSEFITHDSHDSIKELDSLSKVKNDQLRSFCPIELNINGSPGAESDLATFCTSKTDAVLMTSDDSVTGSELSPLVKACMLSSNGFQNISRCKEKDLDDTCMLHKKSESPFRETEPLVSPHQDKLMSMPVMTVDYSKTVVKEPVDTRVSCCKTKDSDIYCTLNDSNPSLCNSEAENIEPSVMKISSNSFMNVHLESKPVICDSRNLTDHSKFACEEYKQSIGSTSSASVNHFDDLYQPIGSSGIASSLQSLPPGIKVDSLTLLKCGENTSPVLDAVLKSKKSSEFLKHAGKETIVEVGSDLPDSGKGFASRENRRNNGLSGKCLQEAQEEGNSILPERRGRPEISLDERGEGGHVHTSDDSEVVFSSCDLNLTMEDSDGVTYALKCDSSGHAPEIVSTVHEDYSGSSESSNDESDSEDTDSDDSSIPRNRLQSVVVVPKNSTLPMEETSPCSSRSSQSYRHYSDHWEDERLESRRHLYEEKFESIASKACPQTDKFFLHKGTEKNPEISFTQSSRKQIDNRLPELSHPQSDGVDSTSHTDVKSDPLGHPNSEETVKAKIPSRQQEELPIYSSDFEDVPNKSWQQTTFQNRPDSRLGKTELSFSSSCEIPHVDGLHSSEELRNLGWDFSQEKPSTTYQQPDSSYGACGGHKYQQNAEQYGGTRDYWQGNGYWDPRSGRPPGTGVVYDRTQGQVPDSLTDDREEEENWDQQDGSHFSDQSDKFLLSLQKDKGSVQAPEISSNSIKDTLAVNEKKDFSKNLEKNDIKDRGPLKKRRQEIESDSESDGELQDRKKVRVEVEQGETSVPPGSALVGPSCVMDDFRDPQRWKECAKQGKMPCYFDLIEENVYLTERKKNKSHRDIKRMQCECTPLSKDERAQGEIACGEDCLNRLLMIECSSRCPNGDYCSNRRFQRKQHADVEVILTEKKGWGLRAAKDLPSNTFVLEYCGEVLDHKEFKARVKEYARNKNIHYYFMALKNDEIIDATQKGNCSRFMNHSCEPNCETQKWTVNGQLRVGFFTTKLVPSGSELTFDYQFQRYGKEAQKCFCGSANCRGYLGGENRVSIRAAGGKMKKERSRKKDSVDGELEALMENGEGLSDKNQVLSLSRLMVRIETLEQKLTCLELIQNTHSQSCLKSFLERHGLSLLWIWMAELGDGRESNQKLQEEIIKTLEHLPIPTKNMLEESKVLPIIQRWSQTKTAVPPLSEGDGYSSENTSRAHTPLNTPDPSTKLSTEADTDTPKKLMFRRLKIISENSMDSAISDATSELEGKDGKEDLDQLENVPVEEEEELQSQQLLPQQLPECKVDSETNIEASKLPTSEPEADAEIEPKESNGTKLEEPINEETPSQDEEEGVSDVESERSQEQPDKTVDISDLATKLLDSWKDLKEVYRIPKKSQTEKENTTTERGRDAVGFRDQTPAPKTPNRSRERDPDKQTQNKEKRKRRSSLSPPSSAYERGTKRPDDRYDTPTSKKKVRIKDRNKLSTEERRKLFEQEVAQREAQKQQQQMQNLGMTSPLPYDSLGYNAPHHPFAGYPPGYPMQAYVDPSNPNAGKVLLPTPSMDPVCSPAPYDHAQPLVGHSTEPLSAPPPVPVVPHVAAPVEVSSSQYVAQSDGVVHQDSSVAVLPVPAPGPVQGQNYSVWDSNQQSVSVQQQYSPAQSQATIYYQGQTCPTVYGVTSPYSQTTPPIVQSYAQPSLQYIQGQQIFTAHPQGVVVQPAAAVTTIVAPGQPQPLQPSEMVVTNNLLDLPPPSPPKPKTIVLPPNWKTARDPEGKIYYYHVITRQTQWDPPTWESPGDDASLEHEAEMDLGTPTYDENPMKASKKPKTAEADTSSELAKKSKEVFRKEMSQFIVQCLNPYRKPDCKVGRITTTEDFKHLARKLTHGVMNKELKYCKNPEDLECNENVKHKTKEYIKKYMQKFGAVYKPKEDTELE

For `COc1cc2c(NCc3c(C)cc(C)[nH]c3=O)nc(N3CCC(F)(F)CC3)nc2cc1OCCCN1CCCC1`, the result in series [1], in series [12] and in [13] was inactive. The compound also registered an area under the curve (AUC) in series [2] of 2476.02 ng·h/mL. The outcome in [3], in [4], in [14] and in [18] was Active. Further, the AUC(0-t) at 12 h in series [5] was determined as 1940 ng·h/mL. In addition, in series [6], the Tmax was 10.2 min. In addition, the inhibition in [7] was 89.2%; in series [10] it was -5.18%; in [19] it was 11.2%. Further, the Activity result in [8] was “Dose-Dependent Effect”; in series [15] it was “Non-Toxic”; in [17] it was “Non-Toxic”. In [9], this compound came in with a Cmax of 1380 ng/mL. It took 4.35 nM to reach half-maximal inhibition in series [11] (IC50). Also, in series [16], the Vd came to 4.54 L/kg. Also, in [20], the TGI was determined as 86.6%.

By AUC is commonly meant the area under the concentration-time curve, a measure of exposure. The low end stands for less exposure, the high end for more exposure. Broadly, the AUC(0-t) is exposure summed from dosing to a finite time, without extrapolation to infinity. One may read the Tmax as the time at which the peak concentration occurs. For orientation: inhibition means the relative decrease from the control value, in per cent. The term Cmax denotes the maximum level reached in the sampled fluid or tissue. The term IC50 denotes the point on the concentration scale where inhibition reaches its midpoint. The TGI is how far tumour growth fell short of that in controls.

Values taken from ChEMBL document CHEMBL5338739, “Discovery of Dual Lysine Methyltransferase G9a and EZH2 Inhibitors with In Vivo Efficacy against Malignant Rhabdoid Tumor” (J Med Chem, 2023).
